Source: ChEMBL document CHEMBL4823252 (J Med Chem, 2021)

Legend:
Type in all cases: functional
MOLM-13 [1] = experiment: Antiproliferative activity against human sunitinib-resistant MOLM-13 cells at 1000 nM incubated for 72 hrs by CCK8 assay relative to control
MOLM-13 [2] = experiment: Antiproliferative activity against human sunitinib-resistant MOLM-13 cells at 111 nM incubated for 72 hrs by CCK8 assay relative to control
MOLM-13 [3] = experiment: Antiproliferative activity against human sunitinib-resistant MOLM-13 cells at 37 nM incubated for 72 hrs by CCK8 assay relative to control
MOLM-13 [4] = experiment: Antiproliferative activity against human sunitinib-resistant MOLM-13 cells at 1 nM incubated for 72 hrs by CCK8 assay relative to control
MOLM-13 [5] = experiment: Antiproliferative activity against human quizartinib-resistant MOLM-13 cells at 37 nM incubated for 72 hrs by CCK8 assay relative to control
MOLM-13 [6] = experiment: Antiproliferative activity against human quizartinib-resistant MOLM-13 cells at 12 nM incubated for 72 hrs by CCK8 assay relative to control
MOLM-13 [7] = experiment: Antiproliferative activity against human quizartinib-resistant MOLM-13 cells at 4 nM incubated for 72 hrs by CCK8 assay relative to control
MOLM-13 [8] = experiment: Antiproliferative activity against human quizartinib-resistant MOLM-13 cells at 1 nM incubated for 72 hrs by CCK8 assay relative to control
MV4-11 [9] = experiment: Induction of cell cycle arrest in human MV4-11 cells assessed as accumulation at G1 phase at 1 nM incubated for 24 hrs by flow cytometry (reference value: 64.73%)
MV4-11 [10] = experiment: Induction of cell cycle arrest in human MV4-11 cells assessed as accumulation at G2/M phase at 1 nM incubated for 24 hrs by flow cytometry (reference value: 7.29%)
MV4-11 [11] = experiment: Induction of cell cycle arrest in human MV4-11 cells assessed as accumulation at G1 phase at 10 nM incubated for 24 hrs by flow cytometry (reference value: 64.73%)
MV4-11 [12] = experiment: Induction of cell cycle arrest in human MV4-11 cells assessed as accumulation at S phase at 10 nM incubated for 24 hrs by flow cytometry (reference value: 16.31%)
MV4-11 [13] = experiment: Induction of cell cycle arrest in human MV4-11 cells assessed as accumulation at G2/M phase at 10 nM incubated for 24 hrs by flow cytometry (reference value: 7.29%)
MV4-11 [14] = experiment: Induction of cell cycle arrest in human MV4-11 cells assessed as accumulation at G1 phase at 100 nM incubated for 24 hrs by flow cytometry (reference value: 64.73%)
MV4-11 [15] = experiment: Induction of cell cycle arrest in human MV4-11 cells assessed as accumulation at S phase at 100 nM incubated for 24 hrs by flow cytometry (reference value: 16.31%)
MV4-11 [16] = experiment: Induction of cell cycle arrest in human MV4-11 cells assessed as accumulation at G2/M phase at 100 nM incubated for 24 hrs by flow cytometry (reference value: 7.29%)
MOLM-13 [17] = experiment: Induction of cell cycle arrest in human MOLM-13 cells assessed as accumulation at sub-G1 phase at 1 nM incubated for 24 hrs by flow cytometry (reference value: 4.24%)
MOLM-13 [18] = experiment: Induction of cell cycle arrest in human MOLM-13 cells assessed as accumulation at S phase at 1 nM incubated for 24 hrs by flow cytometry (reference value: 16.28%)
MOLM-13 [19] = experiment: Induction of cell cycle arrest in human MOLM-13 cells assessed as accumulation at sub-G1 phase at 10 nM incubated for 24 hrs by flow cytometry (reference value: 4.24%)
MOLM-13 [20] = experiment: Induction of cell cycle arrest in human MOLM-13 cells assessed as accumulation at S phase at 10 nM incubated for 24 hrs by flow cytometry (reference value: 16.28%)
MOLM-13 [21] = experiment: Induction of cell cycle arrest in human MOLM-13 cells assessed as accumulation at sub-G1 phase at 100 nM incubated for 24 hrs by flow cytometry (reference value: 4.24%)
MOLM-13 [22] = experiment: Induction of cell cycle arrest in human MOLM-13 cells assessed as accumulation at G1 phase at 100 nM incubated for 24 hrs by flow cytometry (reference value: 69.08%)
MV4-11 [23] = experiment: Induction of apoptosis in human MV4-11 cells assessed as early apoptotic cells at 1 nM incubated for 24 hrs by flow cytometry (reference value: 0.31%)
MV4-11 [24] = experiment: Induction of apoptosis in human MV4-11 cells assessed as late apoptotic cells at 1 nM incubated for 24 hrs by flow cytometry (reference value: 0.58%)
MV4-11 [25] = experiment: Induction of apoptosis in human MV4-11 cells assessed as viable cells at 10 nM incubated for 24 hrs by flow cytometry (reference value: 98.86%); details: read-out: Activity
MV4-11 [26] = experiment: Induction of apoptosis in human MV4-11 cells assessed as early apoptotic cells at 10 nM incubated for 24 hrs by flow cytometry (reference value: 0.31%)
MV4-11 [27] = experiment: Induction of apoptosis in human MV4-11 cells assessed as late apoptotic cells at 10 nM incubated for 24 hrs by flow cytometry (reference value: 0.58%)
MV4-11 [28] = experiment: Induction of apoptosis in human MV4-11 cells assessed as necrotic cells at 10 nM incubated for 24 hrs by flow cytometry (reference value: 0.25%)
MV4-11 [29] = experiment: Induction of apoptosis in human MV4-11 cells assessed as viable cells at 100 nM incubated for 24 hrs by flow cytometry (reference value: 98.86%); details: read-out: Activity
MV4-11 [30] = experiment: Induction of apoptosis in human MV4-11 cells assessed as early apoptotic cells at 100 nM incubated for 24 hrs by flow cytometry (reference value: 0.31%)
MV4-11 [31] = experiment: Induction of apoptosis in human MV4-11 cells assessed as necrotic cells at 100 nM incubated for 24 hrs by flow cytometry (reference value: 0.25%)
MOLM-13 [32] = experiment: Induction of apoptosis in human MOLM-13 cells assessed as necrotic apoptotic cells at 1 nM incubated for 24 hrs by flow cytometry (reference value: 0.45%)
MOLM-13 [33] = experiment: Induction of apoptosis in human MOLM-13 cells assessed as early apoptotic cells at 10 nM incubated for 24 hrs by flow cytometry (reference value: 2.18%)
MOLM-13 [34] = experiment: Induction of apoptosis in human MOLM-13 cells assessed as late apoptotic cells at 10 nM incubated for 24 hrs by flow cytometry (reference value: 4.54%)
MOLM-13 [35] = experiment: Induction of apoptosis in human MOLM-13 cells assessed as necrotic cells at 10 nM incubated for 24 hrs by flow cytometry (reference value: 0.45%)
MOLM-13 [36] = experiment: Induction of apoptosis in human MOLM-13 cells assessed as viable cells at 100 nM incubated for 24 hrs by flow cytometry (reference value: 92.83%); details: read-out: Activity
MOLM-13 [37] = experiment: Induction of apoptosis in human MOLM-13 cells assessed as early apoptotic cells at 100 nM incubated for 24 hrs by flow cytometry (reference value: 2.18%)
MOLM-13 [38] = experiment: Induction of apoptosis in human MOLM-13 cells assessed as late apoptotic cells at 100 nM incubated for 24 hrs by flow cytometry (reference value: 4.54%)

Row | Structure (SMILES) | Activity (MOLM-13 [1]) [%] | Activity (MOLM-13 [2]) [%] | Activity (MOLM-13 [3]) [%] | Activity (MOLM-13 [4]) [%] | Activity (MOLM-13 [5]) [%] | Activity (MOLM-13 [6]) [%] | Activity (MOLM-13 [7]) [%] | Activity (MOLM-13 [8]) [%] | Activity (MV4-11 [9]) [%] | Activity (MV4-11 [10]) [%] | Activity (MV4-11 [11]) [%] | Activity (MV4-11 [12]) [%] | Activity (MV4-11 [13]) [%] | Activity (MV4-11 [14]) [%] | Activity (MV4-11 [15]) [%] | Activity (MV4-11 [16]) [%] | Activity (MOLM-13 [17]) [%] | Activity (MOLM-13 [18]) [%] | Activity (MOLM-13 [19]) [%] | Activity (MOLM-13 [20]) [%] | other results
1 | CCN(CC)CCNC(=O)c1c(C)[nH]c(/C=C2\C(=O)Nc3ccc(F)cc32)c1C [SUNITINIB] | 25.9 | 1.3 | 2.6 | 5.3 | -0.5 | -1.1 | -0.6 | 0.5 | 66.78 | 5.86 | 68.1 | 2.69 | 2.53 | 60.29 | 3.91 | 2.68 | 6.13 | 16.42 | 24.17 | 5.58 | Activity (MOLM-13 [21]): 49.02%; Activity (MOLM-13 [22]): 41.02%; Activity (MV4-11 [23]): 0.29%; Activity (MV4-11 [24]): 1.03%; viability at 0.01 µM (MV4-11 [25]): 89.4%; Activity (MV4-11 [26]): 2.79%; Activity (MV4-11 [27]): 6.58%; Activity (MV4-11 [28]): 1.22%; viability at 0.1 µM (MV4-11 [29]): 80.1%; Activity (MV4-11 [30]): 9.64%; Activity (MV4-11 [31]): 1.71%; Activity (MOLM-13 [32]): 0.24%; Activity (MOLM-13 [33]): 19.36%; Activity (MOLM-13 [34]): 9.47%; Activity (MOLM-13 [35]): 0.4%; viability at 0.1 µM (MOLM-13 [36]): 44.3%; Activity (MOLM-13 [37]): 31.1%; Activity (MOLM-13 [38]): 23.49%
2 | Cc1c(NC(=O)CCN2CCCC2)c[nH]c1/C=C1\C(=O)Nc2ccc(F)cc21 | 67.8 | 4.9 | 4.7 | -4.2 | 3.8 | 2.6 | 3.3 | 1.5 | 69.79 | 3.98 | 66.28 | 2.41 | 2 | 62.23 | 4.06 | 2.51 | 6.76 | 15.09 | 30.16 | 4.63 | Activity (MOLM-13 [21]): 42.35%; Activity (MOLM-13 [22]): 47.75%; Activity (MV4-11 [23]): 0.39%; Activity (MV4-11 [24]): 0.99%; viability at 0.01 µM (MV4-11 [25]): 88%; Activity (MV4-11 [26]): 3.5%; Activity (MV4-11 [27]): 6.55%; Activity (MV4-11 [28]): 1.93%; viability at 0.1 µM (MV4-11 [29]): 71.7%; Activity (MV4-11 [30]): 17.98%; Activity (MV4-11 [31]): 1.57%; Activity (MOLM-13 [32]): 0.22%; Activity (MOLM-13 [33]): 22.66%; Activity (MOLM-13 [34]): 14.5%; Activity (MOLM-13 [35]): 0.52%; viability at 0.1 µM (MOLM-13 [36]): 43.8%; Activity (MOLM-13 [37]): 34.68%; Activity (MOLM-13 [38]): 20.79%
